Laboratory results reported in ChEMBL document CHEMBL1201862, “PubChem BioAssay data set” (2004).
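Protocol summary: plate cells (96-well), add compound at 5 concentrations, incubate 48 h, interpolate endpoints linearly. Abbreviation: GI50, concentration required for 50% inhibition of growth.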 The source made the active and inactive calls. No stated cut-off is given here; in the data, active = GI50 up to about 1.1 µM and inactive = higher.

Columns and labels:
Experiment in all cases: NCI tumour cell line growth inhibition, 48 h
[1] = tested on: COLO 205
[2] = tested on: UACC-257
[3] = tested on: OVCAR-8
[4] = tested on: CCRF-CEM
[5] = tested on: HL-60
[6] = tested on: IGROV-1
[7] = tested on: T47D
[8] = tested on: RXF 393
[9] = tested on: RPMI-8226
[10] = tested on: HOP-62
[11] = tested on: SN12C
[12] = tested on: SW-620
[13] = tested on: MDA-N
[14] = tested on: MOLT-4
[15] = tested on: HCT-15
[16] = tested on: Malme-3M
[17] = tested on: SF-268
[18] = tested on: KM12
[19] = tested on: TK-10
[20] = tested on: HCC 2998
[21] = tested on: SF-295
[22] = tested on: MCF7
[23] = tested on: NCI-H23
[24] = tested on: HT-29
[25] = tested on: DU-145
[26] = tested on: UACC-62
[27] = tested on: SK-OV-3
[28] = tested on: SR
[29] = tested on: SK-MEL-28
[30] = tested on: K562
[31] = tested on: MDA-MB-231
[32] = tested on: A549
[33] = tested on: PC-3
[34] = tested on: SK-MEL-5
[35] = tested on: CAKI-1
[36] = tested on: EKVX
[37] = tested on: SNB-75
[38] = tested on: 786-0
[39] = tested on: M14
[40] = tested on: SNB-19
[41] = tested on: ACHN
[42] = tested on: U-251
[43] = tested on: SK-MEL-2
[44] = tested on: LOX IMVI
[45] = tested on: HCT-116
[46] = tested on: HOP-92
[47] = tested on: SF-539
[48] = tested on: OVCAR-3
[49] = tested on: UO-31
[50] = tested on: MDA-MB-435
[51] = tested on: OVCAR-5
[52] = tested on: OVCAR-4
[53] = tested on: A498
[54] = tested on: NCI/ADR-RES
[55] = tested on: NCI-H460
[56] = tested on: NCI-H226
[57] = tested on: NCI-H522
[58] = tested on: Hs-578T

Structure (SMILES): CC(C)(C)[Si](C)(C)Oc1cc(CO)cc2c1cc(=N)o[n+]2[O-]
- GI50 [1]: > 10 µM (inactive)
- GI50 [2]: > 10 µM (inactive)
- GI50 [3]: > 10 µM (inactive)
- GI50 [4]: 2.84 µM (inactive)
- GI50 [5]: 3.61 µM (inactive)
- GI50 [6]: 8.15 µM (inactive)
- GI50 [7]: 4.8 µM (inactive)
- GI50 [8]: 3.96 µM (inactive)
- GI50 [9]: 6.22 µM (inactive)
- GI50 [10]: > 10 µM (inactive)
- GI50 [11]: 5.56 µM (inactive)
- GI50 [12]: > 10 µM (inactive)
- GI50 [13]: > 10 µM (inactive)
- GI50 [14]: 2.61 µM (inactive)
- GI50 [15]: 5.61 µM
- GI50 [16]: > 10 µM (inactive)
- GI50 [17]: 6.03 µM (inactive)
- GI50 [18]: 4.1 µM (inactive)
- GI50 [19]: > 10 µM (inactive)
- GI50 [20]: 9.35 µM (inactive)
- GI50 [21]: > 10 µM (inactive)
- GI50 [22]: 2.72 µM (inactive)
- GI50 [23]: 6.97 µM (inactive)
- GI50 [24]: 4.18 µM (inactive)
- GI50 [25]: > 10 µM (inactive)
- GI50 [26]: > 10 µM (inactive)
- GI50 [27]: > 10 µM (inactive)
- GI50 [28]: 2.48 µM (inactive)
- GI50 [29]: > 10 µM (inactive)
- GI50 [30]: 4.53 µM (inactive)
- GI50 [31]: > 10 µM (inactive)
- GI50 [32]: > 10 µM (inactive)
- GI50 [33]: 4.01 µM (inactive)
- GI50 [34]: > 10 µM (inactive)
- GI50 [35]: > 10 µM (inactive)
- GI50 [36]: > 10 µM (inactive)
- GI50 [37]: > 10 µM (inactive)
- GI50 [38]: > 10 µM (inactive)
- GI50 [39]: > 10 µM (inactive)

Structure (SMILES): O=c1c2cc(Br)ccc2ncn1COCc1ccccc1
- GI50 [1]: 93.8 µM (inactive)
- GI50 [2]: > 100 µM (inactive)
- GI50 [4]: 71 µM (inactive)
- GI50 [5]: > 10 µM (inactive)
- GI50 [6]: 56.2 µM (inactive)
- GI50 [40]: 45.6 µM (inactive)
- GI50 [8]: 51.5 µM (inactive)
- GI50 [12]: > 100 µM (inactive)
- GI50 [14]: 42.8 µM (inactive)
- GI50 [15]: 64 µM
- GI50 [41]: 23.8 µM (inactive)
- GI50 [18]: 52.6 µM (inactive)
- GI50 [19]: 96.6 µM (inactive)
- GI50 [20]: > 100 µM (inactive)
- GI50 [42]: > 100 µM (inactive)
- GI50 [21]: > 100 µM (inactive)
- GI50 [22]: 37.1 µM (inactive)
- GI50 [25]: > 100 µM (inactive)
- GI50 [43]: > 100 µM (inactive)
- GI50 [26]: 80.5 µM (inactive)
- GI50 [27]: > 100 µM (inactive)
- GI50 [44]: 38.7 µM (inactive)
- GI50 [28]: 56.5 µM (inactive)
- GI50 [45]: 61.8 µM (inactive)
- GI50 [46]: > 100 µM (inactive)
- GI50 [47]: > 100 µM (inactive)
- GI50 [29]: > 100 µM (inactive)
- GI50 [30]: 54.6 µM (inactive)
- GI50 [48]: > 100 µM (inactive)
- GI50 [49]: 24.1 µM (inactive)
- GI50 [50]: > 100 µM (inactive)
- GI50 [51]: > 100 µM (inactive)
- GI50 [52]: > 100 µM (inactive)
- GI50 [53]: > 100 µM (inactive)
- GI50 [32]: 52.1 µM (inactive)
- GI50 [34]: 31 µM (inactive)
- GI50 [36]: 88.3 µM (inactive)
- GI50 [38]: 70.3 µM (inactive)
- GI50 [39]: 97.7 µM (inactive)

Structure (SMILES): CCCCCCCCCCCCCCCCCCOCC(O)COP(=O)(O)OCC1OC(n2ccc(N)nc2=O)C(O)C1O (stereo not drawn)
- GI50 [1]: 10.9 µM (inactive)
- GI50 [2]: 24.8 µM (inactive)
- GI50 [3]: 6.31 µM (inactive)
- GI50 [4]: 0.56 µM (active)
- GI50 [5]: 9.84 µM (inactive)
- GI50 [6]: 9.62 µM (inactive)
- GI50 [40]: 11.6 µM (inactive)
- GI50 [7]: 62.5 µM (inactive)
- GI50 [8]: 12.9 µM (inactive)
- GI50 [9]: 24.9 µM (inactive)
- GI50 [10]: 11.6 µM (inactive)
- GI50 [11]: 36.6 µM (inactive)
- GI50 [12]: 35.6 µM (inactive)
- GI50 [13]: 93.8 µM (inactive)
- GI50 [14]: 0.908 µM (active)
- GI50 [15]: 15.5 µM
- GI50 [16]: 7.05 µM (inactive)
- GI50 [41]: 11.3 µM (inactive)
- GI50 [17]: 16.9 µM (inactive)
- GI50 [18]: 17.1 µM (inactive)
- GI50 [19]: 14.2 µM (inactive)
- GI50 [20]: 22 µM (inactive)
- GI50 [42]: 11.9 µM (inactive)
- GI50 [21]: 22.7 µM (inactive)
- GI50 [22]: 22 µM (inactive)
- GI50 [23]: 26.1 µM (inactive)
- GI50 [24]: 22.8 µM (inactive)
- GI50 [54]: 19.1 µM (inactive)
- GI50 [25]: 98.2 µM (inactive)
- GI50 [26]: 23.9 µM (inactive)
- GI50 [27]: 66.8 µM (inactive)
- GI50 [44]: 14.1 µM (inactive)
- GI50 [28]: 17 µM (inactive)
- GI50 [55]: 3.69 µM (inactive)
- GI50 [45]: 10.9 µM (inactive)
- GI50 [46]: 19.9 µM (inactive)
- GI50 [47]: 16.6 µM (inactive)
- GI50 [56]: > 100 µM (inactive)
- GI50 [29]: 57.5 µM (inactive)
- GI50 [30]: 28.2 µM (inactive)
- GI50 [48]: 43.5 µM (inactive)
- GI50 [31]: 25.8 µM (inactive)
- GI50 [50]: 45.4 µM (inactive)
- GI50 [51]: 33.6 µM (inactive)
- GI50 [57]: 13.4 µM (inactive)
- GI50 [52]: 28.3 µM (inactive)
- GI50 [53]: 11 µM (inactive)
- GI50 [32]: 3.85 µM (inactive)
- GI50 [33]: 6.01 µM (inactive)
- GI50 [34]: 29.9 µM (inactive)
- GI50 [35]: 23.1 µM (inactive)
- GI50 [36]: 61.8 µM (inactive)
- GI50 [37]: 13 µM (inactive)
- GI50 [58]: 36.4 µM (inactive)
- GI50 [38]: 10.9 µM (inactive)
